According to PubChem BioAssay (NCI):
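Interpolation was linear, between the two tested concentrations surrounding the appropriate level; five concentrations were tested over 48 hours in 96-well plates. TGI: concentration producing complete growth inhibition.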 Where a SMILES comes first, the peptide text is derived from it. The star is where a group is joined. Boc = CC(C)(C)OC(=O)*

Legend:
Assay in all cases: NCI tumour cell line growth inhibition, 48 h
[1] = system: SNB-19 CNS
[2] = system: M14 melanoma
[3] = system: RXF 393 renal
[4] = system: SK-MEL-5 melanoma
[5] = system: OVCAR-4 ovarian
[6] = system: SNB-75 CNS
[7] = system: A498 renal
[8] = system: TK-10 renal

| SMILES | TGI [1] [µM] | TGI [2] [µM] | TGI [3] [µM] | TGI [4] [µM] | TGI [5] [µM] | TGI [6] [µM] | TGI [7] [µM] | TGI [8] [µM] |
| --- | --- | --- | --- | --- | --- | --- | --- | --- |
| O=C(/C=C/c1ccc(O)cc1)c1ccc2c(c1)OCO2 | 36.3 | 51.9 | 38.7 | 29.4 | 48 | 50.3 | 38.4 | – |
| Cc1c(Cl)nc(Nc2nc3ccccc3[nH]2)nc1Cl | > 100 | > 100 | > 100 | > 100 | 76.5 | > 100 | > 100 | > 100 |
| CCCN1C(=O)CC(C)N(Cc2ccccc2Cl)C1=S (centres undefined) | > 100 | 79.9 | 21.9 | 33.4 | > 100 | – | 47 | 67.4 |
| Cc1ccsc1/C=N/Nc1nc2ccccc2s1 | 26.9 | > 100 | 29 | 47.9 | 72.9 | 35.6 | 19.2 | 26.9 |
| COC(=O)/C(=C\Nc1cccc(C)n1)S(=O)(=O)c1ccc(C)cc1 | > 100 | > 100 | > 100 | > 100 | > 100 | > 100 | – | > 100 |
| CCCCC(C#N)(OP1(=O)OC(c2ccccc2)C(C)N1C)c1ccccc1 (centres undefined) | 36.4 | 38.3 | 33.1 | 34.2 | – | 37.3 | 33.6 | 37.1 |
| CC(O)c1cc2c(s1)C(=O)c1sccc1C2=O (centres undefined) | 0.292 | 0.0494 | 0.351 | 0.0362 | 0.344 | 0.218 | 0.429 | 0.459 |
| CCOC(=O)c1cc(-c2cc(OC)c(OC)c([N+](=O)[O-])c2)c([N+](=O)[O-])n1C | > 10 | > 10 | > 10 | – | > 10 | > 10 | – | > 10 |
| COC(=O)C(Cc1c[nH]c2ccccc12)NC(=O)C(Cc1c[nH]c2ccccc12)NC(=O)C(Cc1c[nH]c2ccccc12)NC(=O)C(Cc1c[nH]c2ccccc12)NC(=O)C(Cc1c[nH]c2ccccc12)NC(=O)C(Cc1c[nH]c2ccccc12)NC(=O)OC(C)(C)C (centres undefined) (Boc-WWWWWW-OMe; configuration not given here) | > 100 | – | – | 70.5 | > 100 | > 100 | – | > 100 |
| O=C(O)c1cc2ccccc2c(N=Nc2ccc(S(=O)(=O)Nc3nccs3)cc2)c1O | – | > 100 | > 100 | > 100 | > 100 | > 100 | – | > 100 |
| COC(=O)C(Cc1c(C2Nc3ccccc3C2CC(NC(=O)CNC(C)=O)C(=O)OC)[nH]c2ccccc12)NC(=O)CNC(C)=O (centres undefined) | > 100 | > 100 | > 100 | > 100 | > 100 | > 100 | > 100 | > 100 |
| O=S(=O)(c1ccccc1)n1c2ccc(Br)cc2c2nc3ccccc3nc21 | > 100 | > 100 | > 100 | > 100 | > 100 | > 100 | > 100 | > 100 |
| C[Si](C)(OCCS(=O)(=O)O)C1(Cc2cccc3ccccc23)S(=O)(=O)OCCOS1(=O)=O | 42.9 | 46.1 | – | 31.1 | 52.3 | 55.1 | 30.8 | 50.9 |
| O=C1CCC2(CC1CC(Sc1ccccc1)Sc1ccccc1)OCCO2 (centres undefined) | > 100 | > 100 | > 100 | 38 | > 100 | > 100 | > 100 | > 100 |
| COC(=O)NCCc1[nH]nc2c1C(=O)C=C(N1CCOCC1)C2=O | > 100 | > 100 | > 100 | > 100 | > 100 | > 100 | > 100 | > 100 |
| Cn1c(=O)c(C(=O)Nc2nc(C34CC5CC(CC(C5)C3)C4)cs2)c(O)c2ccccc21 | > 100 | – | 65 | > 100 | > 100 | > 100 | > 100 | > 100 |
| CCCSc1ccc2[nH]c(N3C(=O)/C(=C/c4ccco4)N=C3c3ccccc3)cc2c1 | > 50 | > 50 | > 50 | 30.3 | – | > 50 | > 50 | – |
| COC(=O)C1=C(C(=O)OC)C(C(=O)c2ccc(Br)cc2)N2N=C(c3ccc(Cl)cc3)C=CC12 (centres undefined) | > 100 | > 100 | – | > 100 | > 100 | > 100 | > 100 | > 100 |
| O=[N+]([O-])C1CC/C(=N/O)c2nonc21 (centres undefined) | > 10 | > 10 | > 10 | > 10 | > 10 | – | > 10 | > 10 |
| CCN(CC)CC1CCCCN1CC(=O)N1c2ccccc2NC(=O)CC1C (centres undefined) | > 100 | > 100 | > 100 | > 100 | > 100 | – | > 100 | > 100 |

| SMILES | TGI [1] [µM] | TGI [2] [µM] | TGI [3] [µM] | TGI [4] [µM] | TGI [5] [µM] | TGI [6] [µM] | TGI [7] [µM] | TGI [8] [µM] |
| --- | --- | --- | --- | --- | --- | --- | --- | --- |
| COC(=O)c1c(O)ccc2c1c1c(n2Cc2ccccc2Cl)C(=O)c2ccccc2C1=O | 33.7 | 34 | 41.3 | 26.4 | 12.6 | – | 31.3 | 30.6 |
| CC(=O)OCCOCn1c2c(c(=S)[nH]c1=O)CCC2 | > 100 | > 100 | > 100 | > 100 | > 100 | > 100 | – | > 100 |
| CCOP(=O)(OCC)/C(C#N)=C/c1cn(C)cn1 | > 100 | > 100 | > 100 | – | > 100 | > 100 | > 100 | > 100 |
| CCC(CON(C)c1ccccc1)(SC)SC | > 100 | > 100 | – | > 100 | > 100 | > 100 | – | > 100 |
| O=C(c1ccccc1)N1CCN(C(=S)N(C(=O)c2ccccc2)c2ccccc2)C1=S | 26.3 | 9.51 | – | 26.5 | 10.9 | 6.56 | 13.4 | 16.6 |
| CCCCc1ccc(Nc2nc3c(ncn3C3CC(O)C(CN=[N+]=[N-])O3)c(=O)[nH]2)cc1 (centres undefined) | > 100 | > 100 | > 100 | > 100 | > 100 | > 100 | > 100 | – |
| CCOC(=O)C1=CNC(C(=O)OCC)C1c1cccn1-c1ccc(Cl)cc1[N+](=O)[O-] (centres undefined) | – | 44.9 | 36.7 | 30.3 | 98.3 | 51.4 | > 100 | 54.9 |
| O=C(/C=C/c1ccc(O)c(O)c1)OCCCc1ccccc1 | 33.6 | 22.6 | 25.5 | 26.3 | 20.7 | – | 30.4 | – |
| O=C1CC2(c3ccccc3)ON=C(c3ccccc3)N2c2ccccc2N1 (centres undefined) | > 100 | > 100 | > 100 | – | > 100 | > 100 | > 100 | > 100 |
| Oc1ccc(-c2nc(-c3cccnc3)c(-c3ccc(Cl)cc3)[nH]2)cc1O | 27.1 | 26.4 | 25.6 | 27.6 | 51.6 | 20.2 | – | 26.7 |
| C[n+]1c(-c2ccc(/C=N/NC(=N)N/N=C/c3ccc(-c4cn5cc(Cl)ccc5[n+]4C)cc3)cc2)cn2cc(Cl)ccc21 | > 100 | > 100 | – | > 100 | > 100 | > 100 | – | > 100 |
| BrCCCCCOc1ccc(-c2c3ccccc3c(-c3ccc(OCCCCCBr)cc3)c3ccccc23)cc1 | > 100 | > 100 | > 100 | > 100 | > 100 | > 100 | – | > 100 |
| CCCCC(=O)NS(=NC(=O)c1ccccc1)C(Cl)(Cl)Cl (centres undefined) | > 100 | > 100 | > 100 | > 100 | > 100 | > 100 | – | > 100 |
| O=CN1CCN(C(=O)c2ccc(Cl)cc2Cl)C1=S | > 100 | > 100 | > 100 | – | > 100 | 85.5 | > 100 | > 100 |
| CCCCCCCCOC1C(O)C(O)C(O)C(O)C12CO2 (centres undefined) | > 100 | – | > 100 | – | – | > 100 | > 100 | > 100 |
| COC(=O)C1Cc2c(OC)ccc(OC)c2CC(C(=O)OC)C1=O (centres undefined) | > 100 | > 100 | > 100 | > 100 | > 100 | > 100 | > 100 | – |
| OC(c1cc2ccccc2o1)c1cc2ccccc2s1 (centres undefined) | > 10 | > 10 | > 10 | > 10 | > 10 | > 10 | – | > 10 |
| Cc1nc(C)c(C(=O)NNC(N)=S)cc1C(=O)NNC(N)=S | > 100 | > 100 | > 100 | > 100 | > 100 | – | – | > 100 |
| Nc1ncnc2c1nnn2C1C=CC(COS(N)(=O)=O)C1 (centres undefined) | 33.3 | 25 | 86 | 15.9 | 62.3 | 39.3 | – | 36.4 |
